According to patent US20080268492A1, “Methods for Determining Optimal Techniques for Vitrification of Isolated Cells” (THE CURATORS OF THE UNIVERSITY OF MISSOURI, priority 2007, published 2008):
Where two headings read alike, the source gives them in different places.

Legend:
bovine oocytes = settings: 4 or 5.5 mol/L EG in a single step; cited from earlier work
[1] = cited from earlier work; for concentration required to maintain a vitreous state during slow warming: aqueous solution with this compound as the only solute; for total solute required to maintain a vitreous state during cooling and warming: prior analysis
[2] = system: mature (MII) human oocytes
Description: Measurements of oocyte permeability were conducted at different temperatures on an inverted microscope (Leica DMIRB, China). Perfusion of the oocytes was performed as previously described and validated in the laboratory Oocytes were placed in 20 μl drops of Hepes-HTF (Irvine Scientific) with 10% SSS in a petri dish covered with mineral oil (Vitrolife; Englewood, Colo., USA) to prevent evaporation. An initial photograph was taken of the oocyte in order to calculate the initial volume. […] When the perfusate merged with the 20 μl drop of base medium, photographs of the oocytes were taken at regular intervals.
The oocytes were held in place during the experiment using a glass holding pipette (Humagen Holding MPH-MED-30, I.D.-20 μm, O.D.-95˜120 μm) and micromanipulators (#RI MODEL SAS11/2-E, Integra Research Instruments, UK). For temperatures lower than ambient, a 35 mm Petri dish (Falcon 35-1008) was placed in an aluminum chamber that was cooled with circulating liquid via a cooling bath (Fisher model 9109) and pumped through the aluminum chamber using polymer tubing. The bottom of the dish was wrapped in aluminum foil and a square hole was cut in the foil to facilitate viewing the oocyte. This was performed so the dish would fit snugly in the chamber to facilitate heat transfer from the chamber to the dish. The temperature in the cooling bath was set to either −2° C. or +7° C. for the 2 cold temperatures. The actual temperature of the media in the dish was warmer than this due to heat exchange of the fluid as it circulated through the tubing and chamber.
For the third treatment, oocyte permeability was measured at ambient temperature (˜25° C.) where the perfusion took place in a 50 mm Petri dish (Falcon 35-1006) placed on the microscope stage with no heating or cooling. Finally, the warmest temperature was attained in a similar fashion but the temperature of the media was raised by using a microscope stage warmer set to 39° C. Variations in temperature of the media occurred due to day-to-day fluctuations in temperature in the laboratory. However, the actual temperature of the media for each replicate during the experiment was measured using a type-T (copper/constantan) thermocouple and an electronic thermometer (model 51 II, Fluke Corporation, Everett, Wash. USA).
After the experimental run, the oocyte was released from the holding pipette on the micromanipulator and the temperature of the medium was measured such that the thermocouple was visible in the microscope field of view, ensuring that the temperature was recorded at the exact location of the oocyte. […] The exact time of these transitions was recorded during each replication and was accounted for during the calculations to estimate the permeability parameters. […]

Rhesus macaque oocytes = settings: single-step addition and removal; cited from earlier work
mouse oocytes = settings: cited from earlier work
[3] = Differential scanning calorimetry of EG/sucrose/saline solutions (vitreous state during cooling and warming); assay type: physicochemical; settings: for total concentration of the solution necessary to prevent crystallization during warming: cooling 100° C/min, warming 10° C/min; for DSC thermogram during warming: sucrose 0.3 molal with EG
Description: This experiment was designed to determine the amount of EG necessary to maintain an ice-free (i.e. vitreous) state during cooling to cryogenic temperatures ([…]; below the glass transition temperature of these solutions) and warming, when the sucrose concentration ranged from 0.1 to 1.1 molal (mol/kg; equivalent to 0.053 to 0.53 molar (mol/L)). In studies of the physical properties of solutions, components of the solutions are usually measured by weight, not volume. […] Furthermore, concentrations are usually reported in weight fractions (weight percent (w/w, or wt %)). These conventions were used in this experiment and references was made to the equivalent molar concentrations when comparing the results to previously published studies.
A Diamond Differential Scanning Calorimeter (DSC; Perkin-Elmer Waltham, Mass., USA) outfitted with an autosampler and CryoFill liquid nitrogen cooling system was employed for the thermal analysis. The solutions were composed of water (5 g) and NaCl (0.0045 g) to which various amounts of sucrose and EG were added. For this experiment, spectrophotometric grade (>99%) EG was utilized. All components were weighed on an analytical balance. Errors between the target and actual weight percent were less than 0.1% in all instances. To test the vitrification properties of the solutions, 5 μl (˜0.0055 grams) were loaded into standard 10 μl aluminum DSC pans (Perkin-Elmer Part # BO14-3015), and the pans were hermetically sealed. Embryo-grade water and HPLC-grade (>99.9% purity) cyclohexane were also run as calibration standards.
Analyses were conducted at a cooling rate of 100° C./min and a warming rate of 10° C./min to be consistent with previous studies. […] Random noise was estimated by determining the standard deviation of the actual signal from the expected value from the polynomial fit. When an apparent crystallization peak followed by a melting peak in the expected temperature range was noted, and the maximum point on the melting peak was beyond three standard deviations from the expected value, it was classified as a thermal event. Only when three independent solutions confirmed the absence of crystallization and melting was the solution classified as having achieved and maintained a vitreous state throughout the cooling and warming procedure.

OCCO [EG, ethylene glycol]
effect on developmental potential (bovine oocytes): significant reduction | concentration required to maintain a vitreous state during slow warming [1]: ~59 wt % | EG concentration necessary to maintain a vitreous state ([1]; cooling and warming at the DSC rates (100 and 10° C/min)): 59 wt % | EG concentration that should maintain a vitreous state ([1]; warming rate on the order of 1×10^3° C/min): 50 wt % | EG concentration that should maintain a vitreous state ([1]; warming rate on the order of 1×10^4° C/min): 48 wt % | Lp (hydraulic conductivity) in the presence of EG ([2]; 6.7° C): 0.15 μm/(min·atm) | Lp (hydraulic conductivity) in the presence of EG ([2]; 35.7° C): 1.17 μm/(min·atm) | activation energy for Lp ([2]; Arrhenius plot, 95% CI 13.19 to 15.65): 14.42 kcal/mol | activation energy for Ps ([2]; Arrhenius plot, 95% CI 19.49 to 22.91): 21.20 kcal/mol | EG concentration causing membrane damage (Rhesus macaque oocytes): ≥ 3 mol/L | effect on development compared to untreated oocytes (mouse oocytes; 6 mol/L EG for 5 minutes): no effect on development | reduction of developmental potential (mouse oocytes; 7 mol/L EG, 2-step exposure): 30% | mean blastocyst development rate (mouse oocytes; 8 mol/L EG, exposure less than 1 minute, controls ~62%): ~50%

OC[C@H]1O[C@@](CO)(O[C@H]2O[C@H](CO)[C@@H](O)[C@H](O)[C@H]2O)[C@@H](O)[C@@H]1O [sucrose]
concentration required to maintain a vitreous state during slow warming [1]: > 70 wt % | total solute required to maintain a vitreous state during cooling and warming ([1]; sucrose 0 mol/kg with EG): 59 wt % | total solute required to maintain a vitreous state during cooling and warming ([1]; sucrose 0.1 mol/kg with EG): 60 wt % | total solute required to maintain a vitreous state during cooling and warming ([1]; sucrose 0.5 mol/kg with EG): 61 wt % | total solute required to maintain a vitreous state during cooling and warming ([1]; sucrose 1.0 mol/kg with EG): 65 wt % | total concentration of the solution necessary to prevent crystallization during warming ([3]; 0.1 mol/kg sucrose with EG in saline): 59 wt % | total concentration of the solution necessary to prevent crystallization during warming ([3]; 0.3 mol/kg sucrose with EG in saline): 59 wt % | total concentration of the solution necessary to prevent crystallization during warming ([3]; 0.5 mol/kg sucrose with EG in saline): 59 wt % | total concentration of the solution necessary to prevent crystallization during warming ([3]; 0.7 mol/kg sucrose with EG in saline): 60 wt % | total concentration of the solution necessary to prevent crystallization during warming ([3]; 0.9 mol/kg sucrose with EG in saline): 61 wt % | total concentration of the solution necessary to prevent crystallization during warming ([3]; 1.1 mol/kg sucrose with EG in saline): 61 wt % | DSC thermogram during warming ([3]; total solute 55% weight): crystallization and melting peaks | DSC thermogram during warming ([3]; total solute 59 weight %): no evidence of crystallization and melting
